Values quoted from earlier work as cited in patent US20030093057A1, “Methods and formulations for photodynamic therapy” (priority 2001, published 2003).
Read-outs that look alike come from different tables or passages of the source.

Tests used:
[1] = mouse skin
[2] = human skin

**Q.** What does the source list for `NCC(=O)CCC(=O)O` [ALA, delta-aminolevulinic acid]?
**A.** penetration of ALA into skin at increased temperature [1]: did not cause increased penetration; penetration of ALA into skin at increased temperature [2]: did not cause increased penetration
